Reference: PubChem BioAssay (NCI)
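Grown in 96-well plates, cells were treated for 48 hours with each compound at five concentrations. Insufficient inhibition: endpoint recorded as highest concentration tested. GI50: concentration for 50% inhibition of growth. TGI denotes the concentration required for complete inhibition of growth.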

Key:
Test in all cases: growth of human tumour cells (NCI), 48 h
RPMI-8226 leukemia = system: RPMI-8226 leukemia
SW-620 colon = system: SW-620 colon
SNB-19 CNS = system: SNB-19 CNS
EKVX NSCLC = system: EKVX NSCLC
SR leukemia = system: SR leukemia
HOP-92 NSCLC = system: HOP-92 NSCLC
HL-60(TB) leukemia = system: HL-60(TB) leukemia
SK-MEL-5 melanoma = system: SK-MEL-5 melanoma
A498 renal = system: A498 renal
OVCAR-8 ovarian = system: OVCAR-8 ovarian

Compound | GI50 (RPMI-8226 leukemia) [µM] | TGI (RPMI-8226 leukemia) [µM] | GI50 (SW-620 colon) [µM] | TGI (SW-620 colon) [µM] | GI50 (SNB-19 CNS) [µM] | TGI (SNB-19 CNS) [µM] | GI50 (EKVX NSCLC) [µM] | TGI (EKVX NSCLC) [µM] | GI50 (SR leukemia) [µM] | TGI (SR leukemia) [µM] | GI50 (HOP-92 NSCLC) [µM] | TGI (HOP-92 NSCLC) [µM] | GI50 (HL-60(TB) leukemia) [µM] | TGI (HL-60(TB) leukemia) [µM] | GI50 (SK-MEL-5 melanoma) [µM] | TGI (SK-MEL-5 melanoma) [µM] | GI50 (A498 renal) [µM] | TGI (A498 renal) [µM] | GI50 (OVCAR-8 ovarian) [µM] | TGI (OVCAR-8 ovarian) [µM]
O=C1c2ccccc2C(=O)c2c1ccc1[nH]c(CCl)nc21 | 1.83 | 5.87 | 1.56 | 3.3 | 3.52 | 13.6 | 2.59 | 10.7 | 2.25 | 13.8 | 1.58 | 6.26 | 2.64 | 7 | 1.68 | 3.07 | 1.27 | 7.06 | 3.68 | 15.7
COC(=O)[C@@H](C)C[C@H](Cc1ccccc1)NC(=O)c1nc([C@@H](C[C@H](C(C)C)N(C)C(=O)[C@@H](NC(=O)[C@H]2CCCN2C)C(C)C)OC(C)=O)sc1C | < 0.0025 | > 25 | < 0.0025 | > 25 | < 0.0025 | > 25 | 0.0106 | > 25 | < 0.0025 | > 25 | 7.33 | > 25 | < 0.0025 | < 0.0025 | < 0.0025 | 0.0698 | < 0.0025 | 0.00808 | < 0.0025 | > 25
CN1CCCNCCN(CCc2ccccn2)CCCN(C)CC1 | – | > 70.4 | – | > 53.6 | – | > 100 | – | > 100 | – | 57.3 | – | > 100 | – | > 63.6 | – | > 100 | – | > 100 | – | > 100
CN(C)S(=O)(=O)Nc1ccccn1 | – | > 100 | – | > 100 | – | > 100 | – | > 100 | – | > 100 | – | > 100 | – | > 100 | – | > 100 | – | > 100 | – | > 100
COC(=O)c1c2c(c(C)[n+]([O-])c1C)C(=O)C=CC2=O | 2.07 | 5.29 | 1.54 | 3.74 | 1.67 | 3.31 | 2.02 | 5.12 | 2.28 | 8.19 | 2.12 | 6.03 | 2.16 | 4.84 | 1.14 | 2.41 | 3.58 | 13.9 | 0.339 | 1.24
Fc1ccc(-c2nn(-c3ccccc3)cc2-c2nc3ccccc3o2)cc1 | 1.05 | 9.3 | 3.12 | 36.4 | 4.82 | 53.1 | 5.29 | 90.6 | 3.71 | > 100 | 0.158 | 4.48 | 3.29 | 9.26 | 5.72 | 19.3 | 2.97 | 56.7 | 3.61 | > 100
COc1cc2c(cc1OC)C1C=NC(C(=O)O)(C2)c2ccccc21 (stereo not given) | – | > 100 | – | > 100 | – | > 100 | – | > 100 | – | > 100 | – | > 100 | – | > 100 | – | > 100 | – | > 100 | – | > 100
CN(C)c1ccc(/C=C2\C[N+](C)(C)C/C(=C\c3ccc(N(C)C)cc3)C2=O)cc1 | – | 28.5 | – | 43.2 | – | 45.4 | – | > 100 | – | 36.6 | – | 78.9 | – | 13.1 | – | 23.6 | – | > 100 | – | 65.7
N#Cc1cnn2ccn(C3OC(COC(=O)c4ccccc4)C(OC(=O)c4ccccc4)C3OC(=O)c3ccccc3)c12 (stereo not given) | – | > 21.5 | – | > 21.5 | – | > 21.5 | – | > 21.5 | – | > 31.6 | – | > 31.6 | – | > 21.5 | – | > 21.5 | – | 21.5 | – | > 46.4
